Laboratory results reported in patent US20230114728A1 (Venatorx Pharmaceuticals, Inc., priority 2019, published 2023).
Converted amounts (≈) assume the structure as drawn.

What was measured:
Experiment in all cases: Broth microdilution MIC in CAMHB
Type in all cases: cell-based
A. baumannii ATCC 19606 = conditions: Acinetobacter baumannii, ATCC19606; MHB; read-out: Minimum Inhibitory Concentration, A. baumannii ATCC 19606
Summary of the method: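 CLSI broth microdilution in CAMHB: 2-fold compound dilutions inoculated at 2-8×10^5 CFU/mL from 3-5 h log-phase cultures. Incubated at 37 °C for 16-20 h (Enterobacteriaceae, Pseudomonas); MIC read visually as lowest concentration without growth. Strains include hyper-permeable and efflux-deficient mutants.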

E. coli 901C = conditions: Escherichia coli; E. coli 901C (hyper-permeable); MHB; read-out: Minimum Inhibitory Concentration, E. coli 901C
Summary of the method: (§1)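 Lowest compound concentration with no visible growth after 16-20 h at 37 °C defines MIC. Plates of 2-fold serial dilutions in cation-adjusted Mueller Hinton broth received 2-8×10^5 CFU/mL of exponentially grown cells, per CLSI methods; panel spans reference, hyper-permeable and efflux-pump-deleted strains.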

E. coli AG100A = conditions: Escherichia coli, read-out: Minimum Inhibitory Concentration, E. coli AG100A
Summary of the method: as §1

E. coli AG100 = conditions: Escherichia coli; E. coli AG100 (wild-type parent); MHB; read-out: Minimum Inhibitory Concentration, E. coli AG100
Summary of the method: as §1

E. coli ATCC 25922 = conditions: Escherichia coli, ATCC25922; E. coli ATCC 25922; MHB; read-out: Minimum Inhibitory Concentration, E. coli 25922
Summary of the method: as §1

E. coli D22 = conditions: Escherichia coli; E. coli D22 (hyper-permeable); MHB; read-out: Minimum Inhibitory Concentration, E. coli D22
Summary of the method: as §1

[1] = tested on: K. pneumoniae 848844 producing SHV-11 and KPC-2; conditions: Klebsiella pneumoniae, read-out: Minimum Inhibitory Concentration, K. pneumoniae 848844
Summary of the method: as §1

[2] = tested on: K. pneumoniae SI-117 producing VIM-1; conditions: Klebsiella pneumoniae, read-out: Minimum Inhibitory Concentration, K. pneumoniae SI-117
Summary of the method: as §1

[3] = tested on: K. pneumoniae UMM producing SHV-5 and KPC-2; conditions: Klebsiella pneumoniae, read-out: Minimum Inhibitory Concentration, K. pneumoniae UMM
Summary of the method: as §1

[4] = tested on: P. aeruginosa (ΔmexAB-oprM); conditions: Pseudomonas aeruginosa, read-out: Minimum Inhibitory Concentration, P. aeruginosa ΔmexAB-OprM
Summary of the method: as §1

P. aeruginosa ATCC 27853 = conditions: Pseudomonas aeruginosa, ATCC27853; MHB; read-out: Minimum Inhibitory Concentration, P. aeruginosa ATCC 27853
Summary of the method: as §1

P. aeruginosa ATCC 35151 = conditions: Pseudomonas aeruginosa, ATCC35151; MHB; hyper-permeable strain; read-out: Minimum Inhibitory Concentration, P. aeruginosa ATCC 35151
Summary of the method: as §1

| SMILES | MIC (A. baumannii ATCC 19606) | MIC (E. coli 901C) | MIC (E. coli AG100A) | MIC (E. coli AG100) | MIC (E. coli ATCC 25922) | MIC (E. coli D22) | MIC [1] | MIC [2] | MIC [3] | MIC [4] | MIC (P. aeruginosa ATCC 27853) | MIC (P. aeruginosa ATCC 35151) |
| --- | --- | --- | --- | --- | --- | --- | --- | --- | --- | --- | --- | --- |
| O=C(O)c1cccc2c1OB(O)[C@@H](NC(=O)C(NC(=O)N1CCN(CCF)C(=O)C1=O)c1c(F)cc(O)cc1F)C2 (mixture of isomers) [Example 119, (3R)-3-(2-(2,6-difluoro-4-hydroxyphenyl)-2-(4-(2-fluoroethyl)-2,3-dioxopiperazine-1-carboxamido)acetamido)-2-hydroxy-3,4-dihydro-2H-benzo[e][1,2]oxaborinine-8-carboxylic acid] | > 128 µg/mL | < 0.25 µg/mL | 0.5 to 1 µg/mL (≈ 0.865 to 1.73 µM) | 8 to 16 µg/mL (≈ 13.8 to 27.7 µM) | 8 to 16 µg/mL (≈ 13.8 to 27.7 µM) | 0.5 to 1 µg/mL (≈ 0.865 to 1.73 µM) | 32 to 64 µg/mL (≈ 55.3 to 111 µM) | 32 to 64 µg/mL (≈ 55.3 to 111 µM) | 8 to 16 µg/mL (≈ 13.8 to 27.7 µM) | 8 to 16 µg/mL (≈ 13.8 to 27.7 µM) | > 128 µg/mL | 2 to 4 µg/mL (≈ 3.46 to 6.92 µM) |
| NCCN1CCN(C(=O)N[C@H](C(=O)N[C@H]2Cc3cccc(C(=O)O)c3OB2O)c2c(F)cc(O)cc2F)C(=O)C1=O (single isomer, unassigned) [Example 110] | > 128 µg/mL | 8 to 16 µg/mL (≈ 13.9 to 27.8 µM) | 8 to 16 µg/mL (≈ 13.9 to 27.8 µM) | > 128 µg/mL | > 128 µg/mL | 32 to 64 µg/mL (≈ 55.6 to 111 µM) | > 128 µg/mL | > 128 µg/mL | > 128 µg/mL | 32 to 64 µg/mL (≈ 55.6 to 111 µM) | > 128 µg/mL | 8 to 16 µg/mL (≈ 13.9 to 27.8 µM) |
| NCCN1CCN(C(=O)N[C@@H](C(=O)N[C@H]2Cc3cccc(C(=O)O)c3OB2O)c2c(F)cc(O)cc2F)C(=O)C1=O (single isomer, unassigned) [Example 111] | > 128 µg/mL | 0.5 to 1 µg/mL (≈ 0.869 to 1.74 µM) | 0.5 to 1 µg/mL (≈ 0.869 to 1.74 µM) | 8 to 16 µg/mL (≈ 13.9 to 27.8 µM) | 8 to 16 µg/mL (≈ 13.9 to 27.8 µM) | 2 to 4 µg/mL (≈ 3.48 to 6.95 µM) | 8 to 16 µg/mL (≈ 13.9 to 27.8 µM) | 8 to 16 µg/mL (≈ 13.9 to 27.8 µM) | 8 to 16 µg/mL (≈ 13.9 to 27.8 µM) | 8 to 16 µg/mL (≈ 13.9 to 27.8 µM) | > 128 µg/mL | 0.5 to 1 µg/mL (≈ 0.869 to 1.74 µM) |
| NCCN1CCN(C(=O)N[C@@H](C(=O)N[C@H]2Cc3cccc(C(=O)O)c3OB2O)c2cccc(NS(N)(=O)=O)c2)C(=O)C1=O (single isomer, unassigned) [Example 114] | > 128 µg/mL | 2 to 4 µg/mL (≈ 3.24 to 6.48 µM) | 2 to 4 µg/mL (≈ 3.24 to 6.48 µM) | 32 to 64 µg/mL (≈ 51.8 to 104 µM) | 32 to 64 µg/mL (≈ 51.8 to 104 µM) | 8 to 16 µg/mL (≈ 13 to 25.9 µM) | 32 to 64 µg/mL (≈ 51.8 to 104 µM) | 32 to 64 µg/mL (≈ 51.8 to 104 µM) | 32 to 64 µg/mL (≈ 51.8 to 104 µM) | 2 to 4 µg/mL (≈ 3.24 to 6.48 µM) | > 128 µg/mL | 0.5 to 1 µg/mL (≈ 0.81 to 1.62 µM) |
| NCCN1CCN(C(=O)N[C@H](C(=O)N[C@H]2Cc3cccc(C(=O)O)c3OB2O)c2cccc(NS(N)(=O)=O)c2)C(=O)C1=O (single isomer, unassigned) [Example 115] | > 128 µg/mL | 2 to 4 µg/mL (≈ 3.24 to 6.48 µM) | 8 to 16 µg/mL (≈ 13 to 25.9 µM) | > 128 µg/mL | > 128 µg/mL | 8 to 16 µg/mL (≈ 13 to 25.9 µM) | > 128 µg/mL | > 128 µg/mL | > 128 µg/mL | 8 to 16 µg/mL (≈ 13 to 25.9 µM) | > 128 µg/mL | 2 to 4 µg/mL (≈ 3.24 to 6.48 µM) |
| NC1(CN2CCN(C(=O)N[C@@H](C(=O)N[C@H]3Cc4cccc(C(=O)O)c4OB3O)c3c(F)cc(O)cc3F)C(=O)C2=O)CC1 (single isomer, unassigned) [Example 121] | > 128 µg/mL | 0.5 to 1 µg/mL (≈ 0.831 to 1.66 µM) | 2 to 4 µg/mL (≈ 3.33 to 6.65 µM) | 8 to 16 µg/mL (≈ 13.3 to 26.6 µM) | 8 to 16 µg/mL (≈ 13.3 to 26.6 µM) | 2 to 4 µg/mL (≈ 3.33 to 6.65 µM) | 32 to 64 µg/mL (≈ 53.2 to 106 µM) | 32 to 64 µg/mL (≈ 53.2 to 106 µM) | 8 to 16 µg/mL (≈ 13.3 to 26.6 µM) | 8 to 16 µg/mL (≈ 13.3 to 26.6 µM) | > 128 µg/mL | 0.5 to 1 µg/mL (≈ 0.831 to 1.66 µM) |
| NC1(CN2CCN(C(=O)N[C@H](C(=O)N[C@H]3Cc4cccc(C(=O)O)c4OB3O)c3c(F)cc(O)cc3F)C(=O)C2=O)CC1 (single isomer, unassigned) [Example 122] | > 128 µg/mL | 2 to 4 µg/mL (≈ 3.33 to 6.65 µM) | 8 to 16 µg/mL (≈ 13.3 to 26.6 µM) | 32 to 64 µg/mL (≈ 53.2 to 106 µM) | 32 to 64 µg/mL (≈ 53.2 to 106 µM) | 8 to 16 µg/mL (≈ 13.3 to 26.6 µM) | > 128 µg/mL | 32 to 64 µg/mL (≈ 53.2 to 106 µM) | 32 to 64 µg/mL (≈ 53.2 to 106 µM) | 32 to 64 µg/mL (≈ 53.2 to 106 µM) | > 128 µg/mL | 2 to 4 µg/mL (≈ 3.33 to 6.65 µM) |
| CCN1CCN(C(=O)N[C@H](C(=O)N[C@H]2Cc3cccc(C(=O)O)c3OB2O)c2ccc(C(=O)O)cc2)C(=O)C1=O (single isomer, unassigned) [Example 123] | > 128 µg/mL | < 0.25 µg/mL | 8 to 16 µg/mL (≈ 14.5 to 29 µM) | 32 to 64 µg/mL (≈ 57.9 to 116 µM) | > 128 µg/mL | 2 to 4 µg/mL (≈ 3.62 to 7.24 µM) | > 128 µg/mL | > 128 µg/mL | > 128 µg/mL | 8 to 16 µg/mL (≈ 14.5 to 29 µM) | > 128 µg/mL | 0.5 to 1 µg/mL (≈ 0.905 to 1.81 µM) |
| O=C(O)c1cccc2c1OB(O)[C@@H](NC(=O)[C@H](NC(=O)N1CCN(CCF)C(=O)C1=O)c1c(F)cc(O)cc1F)C2 (single isomer, unassigned) [Example 126] | > 128 µg/mL | < 0.25 µg/mL | – | 8 to 16 µg/mL (≈ 13.8 to 27.7 µM) | 8 to 16 µg/mL (≈ 13.8 to 27.7 µM) | 0.5 to 1 µg/mL (≈ 0.865 to 1.73 µM) | 32 to 64 µg/mL (≈ 55.3 to 111 µM) | 8 to 16 µg/mL (≈ 13.8 to 27.7 µM) | 8 to 16 µg/mL (≈ 13.8 to 27.7 µM) | 8 to 16 µg/mL (≈ 13.8 to 27.7 µM) | > 128 µg/mL | 2 to 4 µg/mL (≈ 3.46 to 6.92 µM) |
| CCN1CCN(C(=O)N[C@@H](C(=O)N[C@H]2Cc3cccc(C(=O)O)c3OB2O)c2ccc(C(=O)O)c(Cl)c2)C(=O)C1=O (single isomer, unassigned) [Example 154] | 32 to 64 µg/mL (≈ 54.5 to 109 µM) | < 0.25 µg/mL | 8 to 16 µg/mL (≈ 13.6 to 27.3 µM) | 32 to 64 µg/mL (≈ 54.5 to 109 µM) | 32 to 64 µg/mL (≈ 54.5 to 109 µM) | 2 to 4 µg/mL (≈ 3.41 to 6.82 µM) | > 128 µg/mL | – | 32 to 64 µg/mL (≈ 54.5 to 109 µM) | 8 to 16 µg/mL (≈ 13.6 to 27.3 µM) | > 128 µg/mL | < 0.25 µg/mL |
| CCN1CCN(C(=O)NC(C(=O)N[C@H]2Cc3cccc(C(=O)O)c3OB2O)c2c(F)cc(O)cc2F)C(=O)C1=O (stereo partly drawn) [Example 105, (3R)-3-(2-(2,6-difluoro-4-hydroxyphenyl)-2-(4-ethyl-2,3-dioxopiperazine-1-carboxamido)acetamido)-2-hydroxy-3,4-dihydro-2H-benzo[e][1,2]oxaborinine-8-carboxylic acid] | – | < 0.25 µg/mL | 0.5 to 1 µg/mL (≈ 0.892 to 1.78 µM) | 8 to 16 µg/mL (≈ 14.3 to 28.6 µM) | 8 to 16 µg/mL (≈ 14.3 to 28.6 µM) | 0.5 to 1 µg/mL (≈ 0.892 to 1.78 µM) | 32 to 64 µg/mL (≈ 57.1 to 114 µM) | 32 to 64 µg/mL (≈ 57.1 to 114 µM) | 8 to 16 µg/mL (≈ 14.3 to 28.6 µM) | – | – | – |
